Columns and labels:
Assay in all cases: relative viability (nuclei count vs DMSO), 5 days (fraction); higher = more cells survive
[1] = compound: C1CC1C(=O)NC2=NNC3=C2C=CC(=C3)C4=CC(=CC=C4)C(=O)NC5CC5 [XMD13-2] + C[C@]1(O)C[C@@H](c2nc(-c3ccc4ccc(-c5ccccc5)nc4c3)c3c(N)nccn32)C1 [Linsitinib] (partner 1 µM)
How it was run: (§1)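 Cells from lung cancer lines were seeded into 1536-well plates and, one day later, dosed by pin tool. Treatments were either a single drug or a fixed dose of an anchor drug with five library-drug doses (not always all listed) in √10 steps. After 5 days, nuclei were stained in a one-step fixation (final 0.05% Triton X-100, 1% formaldehyde, 1 ug/ml Hoechst) and counted on 4× images, and relative viability is the treated-to-vehicle nuclei ratio, as the median of duplicate plates.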

[2] = compound: C1CC1C(=O)NC2=NNC3=C2C=CC(=C3)C4=CC(=CC=C4)C(=O)NC5CC5 [XMD13-2] + NC(=O)Nc1cc(-c2cccc(F)c2)sc1C(=O)N[C@H]1CCCNC1 [AZD7762] (partner 0.2 µM)
How it was run: as §1

[3] = compound: Cc1ccc(C(=O)Nc2cccc(C(F)(F)F)c2)cc1Nc1cncc(C(N)=O)c1 [ALW-II-49-7] + CC(=O)Nc1cccc(-n2c(=O)n(C3CC3)c(=O)c3c(Nc4ccc(I)cc4F)n(C)c(=O)c(C)c32)c1 [Trametinib] (partner 0.02 µM)
How it was run: as §1

[4] = compound: Cc1nc(Nc2ncc(C(=O)Nc3c(C)cccc3Cl)s2)cc(N2CCN(CCO)CC2)n1 [Dasatinib] + CC1(C)CCC(c2ccc(Cl)cc2)=C(CN2CCN(c3ccc(C(=O)NS(=O)(=O)c4ccc(N[C@H](CCN5CCOCC5)CSc5ccccc5)c(S(=O)(=O)C(F)(F)F)c4)cc3)CC2)C1 [Navitoclax] (partner 0.5 µM)
How it was run: as §1

| Cell Line | relative viability ([1]; first compound 0.05 µM) | relative viability ([1]; first compound 0.1581 µM) | relative viability ([1]; first compound 0.5 µM) | relative viability ([1]; first compound 1.581 µM) | relative viability ([1]; first compound 5 µM) | relative viability ([2]; first compound 0.05 µM) | relative viability ([2]; first compound 0.1581 µM) | relative viability ([2]; first compound 0.5 µM) | relative viability ([2]; first compound 1.581 µM) | relative viability ([2]; first compound 5 µM) | relative viability ([3]; first compound 0.08 µM) | relative viability ([3]; first compound 0.253 µM) | relative viability ([3]; first compound 0.8 µM) | relative viability ([3]; first compound 2.53 µM) | relative viability ([3]; first compound 8 µM) | relative viability ([4]; first compound 0.005 µM) | relative viability ([4]; first compound 0.01581 µM) | relative viability ([4]; first compound 0.05 µM) | relative viability ([4]; first compound 0.1581 µM) | relative viability ([4]; first compound 0.5 µM) |
| --- | --- | --- | --- | --- | --- | --- | --- | --- | --- | --- | --- | --- | --- | --- | --- | --- | --- | --- | --- | --- |
| RERF-LC-KJ | 0.916 | 0.89 | 0.947 | 0.817 | 0.871 | 1.07 | 0.874 | 1.22 | 0.922 | 0.956 | 0.867 | 0.923 | 0.816 | 0.749 | 0.833 | 1.11 | 0.537 | 0.855 | 0.669 | 0.656 |
| NCI-H1755 | 1.04 | 0.942 | 1.06 | 0.963 | 1.02 | 0.419 | 0.431 | 0.46 | 0.449 | 0.413 | 0.724 | 0.879 | 0.786 | 0.747 | 0.681 | 0.697 | 0.591 | 0.501 | 0.273 | 0.142 |
| PC-14 | 0.986 | 1.04 | 0.958 | 0.878 | 0.927 | 0.392 | 0.337 | 0.464 | 0.329 | 0.446 | 0.722 | 0.826 | 0.717 | 0.683 | 0.665 | 0.976 | 0.982 | 1.09 | 0.647 | 0.0883 |
| NCI-H322M | 0.963 | 0.864 | 1.07 | 0.891 | 0.891 | 0.461 | 0.602 | 0.543 |  | 0.653 | 0.484 | 0.533 | 0.506 | 0.472 | 0.515 | 1.28 | 1.27 | 1.31 | 0.524 | 0.237 |
| NCI-H1666 | 0.869 | 0.804 | 0.741 | 0.818 | 0.86 | 0.849 | 0.89 | 0.927 | 0.81 | 0.807 | 0.864 | 0.927 | 0.865 | 0.948 | 0.803 | 0.948 | 0.895 | 0.917 | 0.617 | 0.324 |
| A-427 | 1.11 | 1.14 | 1.18 | 1.09 | 1 | 0.899 | 0.74 | 0.811 |  | 0.588 | 0.733 | 0.777 | 0.761 | 0.691 | 0.585 | 0.891 | 0.92 | 0.673 | 0.476 | 0.495 |
| NCI-H1651 | 0.964 | 0.961 | 1.05 | 1.07 | 1.01 | 0.515 | 0.577 | 0.486 | 0.462 | 0.511 | 0.839 | 0.772 | 0.824 | 0.781 | 0.808 | 0.962 | 0.806 | 0.759 | 0.76 | 0.611 |
| NCI-H1793 | 0.882 | 0.811 | 0.852 | 0.713 | 0.999 | 0.707 | 0.662 | 0.468 | 0.524 | 0.72 | 0.365 | 0.404 | 0.486 | 0.409 | 0.443 | 0.323 | 0.182 | 0.238 | 0.166 | 0.152 |

Reference: the supplement of paper PMC10307832
